From patent US12564638B2 (SHANGHAITECH UNIVERSITY, priority 2019, dated 2026) come the findings set out here.

Each structure is given as a SMILES string. Like-named read-outs stand apart in the source and are kept apart here.

Common to all, as to format: cell-based
For test [1], the system named is BT474 cells (HER2 positive breast cancer cells). Description: Cell viability assay (CCK8), BT474 cells. The settings on record: Homo sapiens, BT-474, Table 10, BT474, 72 hours, read-out: IC50 (half inhibitory concentration). The source says:
The cell lines with abnormal EGFR expression used are as follows: • HCC827 cells (EGFR Exon19 del, non-small cell lung cancer cells); • PC9 cells (EGFR Exon 19 del, non-small cell lung cancer cells); • PC9BracA1 (EGFR Exon 19 del+T790M, non-small cell lung cancer cells) • H1975 (EGFR Exon T790M+L858R mutation, non-small cell lung cancer cell line) • BT474 cells (HER2 positive breast cancer cells)
All of the half inhibitory concentrations (IC50) of these compounds of the present invention were determined with WST reagent from Fuyuan Biotec Company. The specific experiment procedures are as follows: Cancer cells were planted in 96-well-plate at the density of 3 000 cells per well with 100 μL RPMI1640 completed culture medium. In the next day, compounds with indicated concentrations were added to the cells, DMSO was used as the negative control and the EGFR TKIs were used to treat cells as the positive groups. After 72 hours drug treatment, cell viability was measured by using the WST reagent following the instructions. The growth inhibition curve of the compounds on cells were plotted by Prism GraphPad, and the compounds IC50 calculated from it.
The cell viability assays were taken to determine the anti-tumor activity of these indicated compounds in BT474 cells, which can overexpress HER2 protein. The cells were treated with the gradient concentration of these compounds (the maximum concentration: 10 μM; 3-fold dilution ratio, 10 concentration gradients) for 72 hours and then incubated with the CCK8 reagent to determine the cell viability.

Test [2] relates to HCC827 cells (EGFR Exon19 del, non-small cell lung cancer cells). Briefly: Cell viability assay (WST/CCK8), HCC827 cells. The following applies: Homo sapiens, HCC827, 72 h, HCC827 (Exon19 Del), 72 hours, read-out: IC50 (half inhibitory concentration). The essentials:
(§1)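 Plated 3 000 cells/well in complete RPMI1640 the day before dosing; controls were DMSO (negative) and EGFR TKIs (positive).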

Test [3] has as its system PC9 cells (EGFR Exon 19 del, non-small cell lung cancer cells). Description: Cell viability assay (WST/CCK8), PC9 cells. The following applies: Homo sapiens, PC-9, PC9 (Exon19 Del), 72 hours, read-out: IC50 (half inhibitory concentration). The essentials: as §1
Setting [4] is: Table 6, canertinib-based compounds, WST.

With `C=CC(=O)Nc1cc2c(Nc3ccc(F)c(Cl)c3)ncnc2cc1OCCCN1CCN(C(=O)CCC(=O)NCCOCCNc2cccc3c2C(=O)N(C2CCC(=O)NC2=O)C3=O)CC1` (centres unmarked) [SIAIS249099, 4-(4-(3-((6-acrylamido-4-((3-chloro-4-fluorophenyl)amino)quinazolin-7-yl)oxy)propyl)piperazin-1-yl)-N-(2-(2-((2-(2,6-dioxopiperidin-3-yl)-1,3-dioxoisoindolin-4-yl)amino)ethoxy)ethyl)-4-oxobutanamide], the values for the IC50 in test [1], in test [2] (setting [4]) and in test [3] (setting [4]) were 35.6 nM, 11.8 nM and 29.7 nM, respectively.

Take `COc1cc2ncnc(Nc3ccc(F)c(Cl)c3)c2cc1NC(=O)/C=C/CN1CCC(N2CCN(Cc3ccc(CNc4cccc5c4CN(C4CCC(=O)NC4=O)C5=O)cc3)CC2)CC1` (centres unmarked) [SIAIS337024, (E)-N-(4-((3-chloro-4-fluorophenyl)amino)-7-methoxyquinazolin-6-yl)-4-(4-(4-(4-(((2-(2,6-dioxopiperidin-3-yl)-1-oxoisoindolin-4-yl)amino)methyl)benzyl)piperazin-1-yl)piperidin-1-yl)but-2-enamide]: the IC50 is 51.5 nM in test [1], 1.1 nM in test [2] (WST (CCK8)) and 13 nM in test [3] (WST (CCK8)).

On to `COc1cc2ncnc(Nc3ccc(F)c(Cl)c3)c2cc1NC(=O)/C=C/CN1CCC(NC(=O)CCCCCSc2cccc3c2CN(C2CCC(=O)NC2=O)C3=O)CC1` (centres unmarked) [SIAIS262114, (E)-N-(1-(4-((4-((3-chloro-4-fluorophenyl)amino)-7-methoxyquinazolin-6-yl)amino)-4-oxobut-2-en-1-yl)piperidin-4-yl)-6-((2-(2,6-dioxopiperidin-3-yl)-1-oxoisoindolin-4-yl)thio)hexanamide], for which the IC50 in test [1] was found to be 90 nM; in test [2] (WST (CCK8)) it was 4 nM; in test [3] (WST (CCK8)), 11.9 nM.

For the molecule `COc1cc2ncnc(Nc3ccc(F)c(Cl)c3)c2cc1NC(=O)/C=C/CN1CCC(NC(=O)CCNc2cccc3c2C(=O)N(C2CCC(=O)NC2=O)C3=O)CC1` (centres unmarked) [SIAIS249082, (E)-N-(4-((3-chloro-4-fluorophenyl)amino)-7-methoxyquinazolin-6-yl)-4-(4-(3-((2-(2,6-dioxopiperidin-3-yl)-1,3-dioxoisoindolin-4-yl)amino)propanamido)piperidin-1-yl)but-2-enamide], the IC50 is 52.5 nM in test [1], 6 nM in test [2] (WST (CCK8)) and 6.1 nM in test [3] (WST (CCK8)).

In the case of `COc1cc2ncnc(Nc3ccc(F)c(Cl)c3)c2cc1NC(=O)/C=C/CN1CCC(N2CCN(CCCCCSc3cccc4c3CN(C3CCC(=O)NC3=O)C4=O)CC2)CC1` (centres unmarked) [SIAIS262064, (E)-N-(4-((3-chloro-4-fluorophenyl)amino)-7-methoxyquinazolin-6-yl)-4-(4-(4-(5-((2-(2,6-dioxopiperidin-3-yl)-1-oxoisoindolin-4-yl)thio)pentyl)piperazin-1-yl)piperidin-1-yl)but-2-enamide], the IC50 in test [1] came to 1.85 nM.

`COc1cc2ncnc(Nc3ccc(F)c(Cl)c3)c2cc1NC(=O)/C=C/CN1CCNCC1` [Dacomitinib derivative A, (E)-N-(4-((3-chloro-4-fluorophenyl)amino)-7-methoxyquinazolin-6-yl)-4-(piperazin-1-yl)but-2-enamide]: the figures for the IC50 in test [2] (WST (CCK8)) and in test [3] (WST (CCK8)) were 4 nM and 9.7 nM, respectively.

`COc1cc2ncnc(Nc3ccc(F)c(Cl)c3)c2cc1NC(=O)/C=C/CN1CCN(C(=O)CCCCNc2cccc3c2C(=O)N(C2CCC(=O)NC2=O)C3=O)CC1` (centres unmarked) [SIAIS249048, (E)-N-(4-((3-chloro-4-fluorophenyl)amino)-7-methoxyquinazolin-6-yl)-4-(4-(5-((2-(2,6-dioxopiperidin-3-yl)-1,3-dioxoisoindolin-4-yl)amino)pentanoyl)piperazin-1-yl)but-2-enamide]: the IC50 came to 3.2 nM in test [2] (WST (CCK8)) and 10.3 nM in test [3] (WST (CCK8)).

Take `COc1cc2ncnc(Nc3ccc(F)c(Cl)c3)c2cc1NC(=O)/C=C/CN1CCN(C(=O)CCOCCOCCOCCOCCNc2cccc3c2C(=O)N(C2CCC(=O)NC2=O)C3=O)CC1` (centres unmarked) [SIAIS262014, (E)-N-(4-((3-chloro-4-fluorophenyl)amino)-7-methoxyquinazolin-6-yl)-4-(4-(1-((2-(2,6-dioxopiperidin-3-yl)-1,3-dioxoisoindolin-4-yl)amino)-3,6,9,12-tetraoxapentadecan-15-oyl)piperazin-1-yl)but-2-enamide]: the IC50 was found to be 39.5 nM in test [2] (WST (CCK8)) and 128 nM in test [3] (WST (CCK8)).

For `COc1cc2ncnc(Nc3ccc(F)c(Cl)c3)c2cc1NC(=O)/C=C/CN1CCN(C(=O)CCCCCSc2cccc3c2CN(C2CCC(=O)NC2=O)C3=O)CC1` (centres unmarked) [SIAIS219189, (E)-N-(4-((3-chloro-4-fluorophenyl)amino)-7-methoxyquinazolin-6-yl)-4-(4-(6-((2-(2,6-dioxopiperidin-3-yl)-1-oxoisoindolin-4-yl)thio)hexanoyl)piperazin-1-yl)but-2-enamide], the IC50 in test [2] (WST (CCK8)) was 3.8 nM; in test [3] (WST (CCK8)) it was 9.2 nM.

Take `COc1cc2ncnc(Nc3ccc(F)c(Cl)c3)c2cc1NC(=O)/C=C/CN1CCN(C(=O)CCCCCCNc2cccc3c2C(=O)N(C2CCC(=O)NC2=O)C3=O)CC1` (centres unmarked) [SIAIS262015, (E)-N-(4-((3-chloro-4-fluorophenyl)amino)-7-methoxyquinazolin-6-yl)-4-(4-(7-((2-(2,6-dioxopiperidin-3-yl)-1,3-dioxoisoindolin-4-yl)amino)heptanoyl)piperazin-1-yl)but-2-enamide]: the IC50 in test [2] (WST (CCK8)) is 3 nM; in test [3] (WST (CCK8)), 12 nM.

Turning to `COc1cc2ncnc(Nc3ccc(F)c(Cl)c3)c2cc1NC(=O)/C=C/CN1CCN(C(=O)CCOCCNc2cccc3c2C(=O)N(C2CCC(=O)NC2=O)C3=O)CC1` (centres unmarked) [SIAIS249046, (E)-N-(4-((3-chloro-4-fluorophenyl)amino)-7-methoxyquinazolin-6-yl)-4-(4-(3-(2-((2-(2,6-dioxopiperidin-3-yl)-1,3-dioxoisoindolin-4-yl)amino)ethoxy)propanoyl)piperazin-1-yl)but-2-enamide], the IC50 in test [2] (WST (CCK8)) was found to be 3.4 nM; in test [3] (WST (CCK8)), 57 nM.

Regarding `COc1cc2ncnc(Nc3ccc(F)c(Cl)c3)c2cc1NC(=O)/C=C/CN1CCN(C(=O)COCCSc2cccc3c2C(=O)N(C2CCC(=O)NC2=O)C3=O)CC1` (centres unmarked) [SIAIS219192, (E)-N-(4-((3-chloro-4-fluorophenyl)amino)-7-methoxyquinazolin-6-yl)-4-(4-(2-(2-((2-(2,6-dioxopiperidin-3-yl)-1,3-dioxoisoindolin-4-yl)thio)ethoxy)acetyl)piperazin-1-yl)but-2-enamide], the IC50 in test [2] (WST (CCK8)) came to 16.4 nM; in test [3] (WST (CCK8)), 8.9 nM.

As for `COc1cc2ncnc(Nc3ccc(F)c(Cl)c3)c2cc1NC(=O)/C=C/CN1CCC(N2CCN(C(=O)CCCCCCCCCSc3cccc4c3CN(C3CCC(=O)NC3=O)C4=O)CC2)CC1` (centres unmarked) [SIAIS337037, (E)-N-(4-((3-chloro-4-fluorophenyl)amino)-7-methoxyquinazolin-6-yl)-4-(4-(4-(10-((2-(2,6-dioxopiperidin-3-yl)-1-oxoisoindolin-4-yl)thio)decanoyl)piperazin-1-yl)piperidin-1-yl)but-2-enamide], the IC50 stood at 0.3 nM in test [2] (WST (CCK8)) and 0.7 nM in test [3] (WST (CCK8)).
